BindingDB's records for patent US10071110 (University of California, 2018)

Target: T1, Capsid scaffolding protein (Human cytomegalovirus (strain AD169), UniProt P16753)
T1 sequence (P16753 whole entry): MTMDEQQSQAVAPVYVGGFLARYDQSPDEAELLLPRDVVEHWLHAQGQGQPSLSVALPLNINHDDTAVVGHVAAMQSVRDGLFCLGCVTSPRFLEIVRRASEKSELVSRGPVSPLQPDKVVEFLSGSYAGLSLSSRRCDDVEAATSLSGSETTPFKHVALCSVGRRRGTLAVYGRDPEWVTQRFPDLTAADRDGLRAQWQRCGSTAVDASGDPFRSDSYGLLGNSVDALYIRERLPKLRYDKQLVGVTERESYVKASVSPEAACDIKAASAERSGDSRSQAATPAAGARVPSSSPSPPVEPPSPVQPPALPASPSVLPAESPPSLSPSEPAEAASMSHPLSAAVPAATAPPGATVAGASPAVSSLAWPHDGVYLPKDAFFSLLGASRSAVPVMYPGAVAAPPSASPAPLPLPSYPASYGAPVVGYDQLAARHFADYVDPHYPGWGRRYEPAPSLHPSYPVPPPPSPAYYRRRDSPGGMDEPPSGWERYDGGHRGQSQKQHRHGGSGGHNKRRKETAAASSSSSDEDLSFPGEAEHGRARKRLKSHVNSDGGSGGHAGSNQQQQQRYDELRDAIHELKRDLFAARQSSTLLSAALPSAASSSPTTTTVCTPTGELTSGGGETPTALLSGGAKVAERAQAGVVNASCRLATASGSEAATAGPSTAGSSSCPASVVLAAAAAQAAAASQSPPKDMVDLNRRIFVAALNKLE
Experiment: HCMV antiviral assay
Method: Methods 21:293-298, 1990. […] After absorption of the lysate, the Hybriwix filters were hybridized overnight at 60° C.

Nc1ncnc2c1ncn2CCOCP(=O)(O)O [US10071110, Compound Adefovir]
EC50: 55 µM
